# Measured values taken from article PMC11249646, “Small-Molecule Disruptors of the Interaction between Calcium- and Integrin-Binding Protein 1 and Integrin αIIbβ3 as Novel Antiplatelet Agents” (ACS Pharmacology & Translational Science, 2024).
# pIC50: −log10 of the molar value. Read-outs that look alike come from different tables or passages of the source.
# Assays:
# Type in all cases: binding
# [1] = molecular target: T1, CIB1 and αIIb interaction (GST-CIB1 : F-αIIb peptide) (Homo sapiens, UniProt Q99828); assay: FP assay, 384-well format (screen); set-up: 384-well SCREEN Efficacy (%): concentration or dose not given beside the values; details: F-αIIb peptide; for 384-well SCREEN Confirm?: YES/NO; for pIC50: read-out: 384-well SCREEN IC50
# T1 construct: made in house; host or cells: BL-21 plus RIL cells (E. coli)
# T1 sequence (Q99828 1-191): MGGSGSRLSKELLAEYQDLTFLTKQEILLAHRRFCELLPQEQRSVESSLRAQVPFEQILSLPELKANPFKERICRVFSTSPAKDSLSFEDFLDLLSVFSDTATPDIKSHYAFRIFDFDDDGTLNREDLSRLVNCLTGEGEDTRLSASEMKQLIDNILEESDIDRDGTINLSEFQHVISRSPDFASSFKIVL
# [2] = molecular target: T2, GST-CIB1 : F-scrambled peptide (Homo sapiens, UniProt Q99828); assay: FP scrambled-peptide counter screen, 384-well format; details: F-scrambled peptide; for 384-well COUNTERSCREEN Confirm?: *: Curve in opposite direction; for pIC50: read-out: 384-well COUNTERSCREEN IC50
# T2 construct: made in house; host or cells: BL-21 plus RIL cells (E. coli)
# T2 sequence (Q99828 1-191): T1 sequence (Q99828 1-191)
# [3] = molecular target: T3, CIB1 and αIIb interaction (CIB1-GST : F-αIIb peptide) (Homo sapiens, UniProt Q99828); assay: FP assay, 1536-well qHTS format (primary and confirmatory screen); details: for CONFIRMATORY SCREEN Confirm?: YES/NO call; for CONFIRMATORY SCREEN Curve Class: qHTS curve class; for CONFIRMATORY SCREEN Curve Class / Curve Class: negative sign = inhibitory curve; for CONFIRMATORY SCREEN Efficacy (%) / Efficacy (%): negative = inhibition
# T3 construct: made in house; host or cells: BL-21 plus RIL cells (E. coli)
# T3 sequence (Q99828 1-191): T1 sequence (Q99828 1-191)
# [4] = molecular target: T2, GST-CIB1 : F-scrambled peptide; assay: FP scrambled-peptide counter screen, 1536-well format; details: scrambled-peptide counterscreen; for COUNTERSCREEN Confirm?: YES/NO call; for COUNTERSCREEN Curve Class: qHTS curve class; for pIC50: read-out: COUNTERSCREEN IC50
# [5] = confirmatory screen, read-out: CONFIRMATORY SCREEN IC50
# [6] = qHTS FP screen hits, Table S2, one class per curve where COUNT > 1
# [7] = qHTS FP screen hits, Table S2, read-out: IC50
# [8] = qHTS primary screen hits, Table S2
# [9] = qHTS primary screen hits, Table S2, several classes where COUNT > 1
# [10] = qHTS primary screen hits, Table S2, read-out: IC50
SMILES,384-well SCREEN Efficacy (%) [1] [%],384-well SCREEN Confirm? [1],pIC50 [1],384-well COUNTERSCREEN Efficacy (%) [2] [%],384-well COUNTERSCREEN Confirm? [2],pIC50 [2],CONFIRMATORY SCREEN Confirm? ([3]; confirmatory screen),CONFIRMATORY SCREEN Curve Class ([3]; confirmatory screen),CONFIRMATORY SCREEN Efficacy (%) ([3]; confirmatory screen),"pIC50 [3, 5]","Efficacy (%) ([3]; qHTS FP screen hits, Table S2)",COUNTERSCREEN Efficacy (%) [4] [%],COUNTERSCREEN Confirm? [4],COUNTERSCREEN Curve Class [4],"Efficacy (%) [3, 8] [%]","Curve Class [3, 9]","pIC50 [3, 10]",pIC50 [4],also measured
Cn1sc(=O)n(Cc2ccccc2)c1=O [NCGC00165913-03],90,YES,5.77,-20,YES,< 3.92,YES,-1.2,-81,5.10,-79,-22,YES,4,,,,,"Curve Class [3, 6]: -1.2; pIC50 [3, 7]: 5.05"
Cc1ccccc1S(=O)(=O)Nc1cnccc1C(=O)Nc1nc(-c2ccccc2)cs1.O=C(O)C(F)(F)F [NCGC00344941-01],35,YES,4.75,20,YES,< 3.92,YES,-1.2,-59,,,10,YES,4,-51,-2.2,4.35,,
Oc1c(Cl)cc(Cl)c(Cl)c1Cc1c(O)c(Cl)cc(Cl)c1Cl [NCGC00091195-08],55,,< 3.92,205,,4.50,YES,-1.4,-38,5.15,,106,YES,,-59,-2.2,4.30,4.05,
COc1ccc(C(=O)Nc2nc(-c3ccccc3)cs2)c(NS(=O)(=O)c2ccc(C)cc2)c1.O=C(O)C(F)(F)F [NCGC00262390-01],24,,< 3.92,102,,4.50,YES,-1.2,-60,4.95,-22,92,YES,,,,,4.15,"pIC50 [3, 7]: 4.75"
O=C(Nc1nc(-c2ccccc2)cs1)c1ccncc1NS(=O)(=O)c1ccc(Cl)cc1.O=C(O)C(F)(F)F [NCGC00344892-02],31,YES,4.45,55,YES,< 3.92,YES,-1.2,-69,4.60,,13,YES,4,,,,,
Cc1ccc(S(=O)(=O)Nc2cc([N+](=O)[O-])ccc2C(=O)Nc2nc(-c3ccccc3)cs2)cc1.O=C(O)C(F)(F)F [NCGC00262992-01],135,YES,< 3.92,115,,4.10,YES,-1.1,-97,5.25,,42,YES,4,-34,,5.00,,"Curve Class [3, 8]: -2.4"
O=C(O)C(F)(F)F.O=c1c2ccccc2nc2sc(NS(=O)(=O)c3ccc4c(c3)CCC4)nn12 [NCGC00187579-01],43,YES,4.35,28,YES,< 3.92,YES,-1.2,-35,5.20,,62,YES,,-32,,5.55,4.45,"Curve Class [3, 8]: -1.4"
O=C(O)C(F)(F)F.O=c1c2ccccc2nc2sc(Nc3cccc(N4CCN5CCCCC5C4)c3)nn12 (stereo not drawn) [NCGC00189229-01],42,YES,3.92,42,,4.75,YES,-1.2,-50,5.10,-20,-28,YES,-2.4,,,,4.25,"pIC50 [3, 7]: 5.60"
O=c1sc2ccccc2c(O)c1C1CC(c2ccc(-c3ccc(Br)cc3)cc2)Cc2ccccc21 (stereo not drawn) [NCGC00262959-01],87,,< 3.92,156,,4.60,YES,-1.4,-49,5.15,-38,118,YES,,,,,4.10,"Curve Class [3, 6]: -1.2; pIC50 [3, 7]: 4.75"
COc1ccccc1S(=O)(=O)Nc1cnccc1C(=O)Nc1nc(-c2ccccc2)cs1.O=C(O)C(F)(F)F [NCGC00344905-01],37,YES,5.15,44,,5.00,YES,-2.2,-79,,-43,-15,YES,4,,,,,"Curve Class [3, 6]: -2.2"
CCc1ccc(S(=O)(=O)Nc2cnccc2C(=O)Nc2nc(-c3ccccc3)cs2)cc1.O=C(O)C(F)(F)F [NCGC00344909-01],40,YES,4.45,44,YES,< 3.92,YES,-2.2,-82,4.65,,14,YES,4,-57,-2.2,4.10,,
Cc1ccc(S(=O)(=O)Nc2cnccc2C(=O)Nc2nc(-c3ccc(C)c(C)c3)cs2)cc1.O=C(O)C(F)(F)F [NCGC00318954-01],52,YES,4.80,37,YES*,4.50,YES,-1.4,-70,4.65,,17,YES,4,-61,-3,,,
CN1CCCN=C1/C=C/c1cccs1.O=C(O)c1cc2ccccc2c(Cc2c(O)c(C(=O)O)cc3ccccc23)c1O [NCGC00094552-04],24,,,40,,,YES,-2.4,-39,,,0,YES,4,-25,-2.4,,,
Cc1ccc(S(=O)(=O)Nc2cnccc2C(=O)Nc2nc(-c3cccc(C)c3)cs2)cc1.O=C(O)C(F)(F)F [NCGC00343524-02],42,YES,5.00,60,YES*,4.85,YES,-2.1,-128,4.70,,14,YES,4,-40,-2.2,4.45,,
